Assay results as given in article PMC4130243 (ACS Combinatorial Science, 2014).

Molecular target: T1, Mdm4 (Homo sapiens, UniProt O15151)
T1 sequence (O15151 1-490): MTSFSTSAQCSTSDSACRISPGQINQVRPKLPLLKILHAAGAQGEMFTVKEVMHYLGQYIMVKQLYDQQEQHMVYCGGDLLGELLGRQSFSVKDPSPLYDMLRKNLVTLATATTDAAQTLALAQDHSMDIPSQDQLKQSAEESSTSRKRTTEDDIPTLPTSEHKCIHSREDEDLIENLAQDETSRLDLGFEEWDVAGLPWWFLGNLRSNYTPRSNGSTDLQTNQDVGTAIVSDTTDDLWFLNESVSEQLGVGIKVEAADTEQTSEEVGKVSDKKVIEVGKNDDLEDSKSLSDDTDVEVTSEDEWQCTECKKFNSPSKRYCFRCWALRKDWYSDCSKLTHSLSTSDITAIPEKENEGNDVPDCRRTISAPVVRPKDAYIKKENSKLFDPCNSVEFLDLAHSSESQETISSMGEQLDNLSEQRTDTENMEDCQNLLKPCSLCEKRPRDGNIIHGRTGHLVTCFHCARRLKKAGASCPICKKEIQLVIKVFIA
Test: fluorescence polarization assay, p53-Mdm4
Assay type: binding
Conditions: FP, resynthesized and purified by flash chromatography

Work on `O=C(CN(Cc1ccc(Cl)cc1)C(=O)c1cc2ccccc2[nH]1)NC1CCCCC1` [Compound B1, N-(4-Chlorobenzyl)-N-(2-(cyclohexylamino)-2-oxoethyl)-1H-indole-2-carboxamide] yielded a Ki of 5.5 µM.
